Source: patent EP4603105A1, “PHARMACEUTICAL COMPOSITION CONTAINING CYCLIC COMPOUND HAVING SELECTIVE KRAS INHIBITORY EFFECT AGAINST HRAS AND NRAS” (CHUGAI SEIYAKU KABUSHIKI KAISHA, priority 2022, dated 2024)
pIC50, pKd: −log10 of the molar value.

Experiments:
[1] = biological target: GDP-bound NRAS wild-type protein (Homo sapiens, UniProt P01111); assay: Binding to NRAS by surface plasmon resonance (SPR), KD and KD ratio to KRAS
In short: (§1)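 Measured at 30°C: SPR with GDP-loaded, E. coli-expressed biotin-Avi RAS captured (~100–300 RU), ascending 75 s compound injections, HBS pH 7.4 with GDP, MgCl2, 4% DMSO. KD from 1:1 fit.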

[2] = biological target: GDP-bound KRAS wild-type protein (Homo sapiens, UniProt P01116); assay: Binding to KRAS by surface plasmon resonance (SPR), dissociation constant KD; conditions: 1:1 binding model
GDP-bound KRAS wild-type protein, sequence (P01116 1-188 isoform P01116-2): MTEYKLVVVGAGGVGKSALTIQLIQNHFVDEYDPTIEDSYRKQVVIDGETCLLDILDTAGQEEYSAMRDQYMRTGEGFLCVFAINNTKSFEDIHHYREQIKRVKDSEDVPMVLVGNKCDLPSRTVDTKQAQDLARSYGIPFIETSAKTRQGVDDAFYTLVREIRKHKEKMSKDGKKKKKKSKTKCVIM
In short: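 GDP-bound biotin-Avi RAS captured at ~100–300 RU, 30°C, pH 7.4 HBS containing 10 µM GDP, 10 mM MgCl2, 1 mM DTT, 0.01% Tween 20 and 4% DMSO. KD by 1:1 fitting.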

[3] = test system: human lung cancer strain NCI-H441; type: cell-based
In short: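 Signal came from […] measured per well once the reagent was added. Beforehand, cells were cultured at 37°C and 5% carbon dioxide on a compound series serially diluted in dimethyl sulfoxide.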

HRAS wild-type protein = HRAS wild-type protein (Homo sapiens, UniProt P01112); assay: Binding to HRAS by surface plasmon resonance (SPR), KD and KD ratio to KRAS
HRAS wild-type protein, sequence (P01112 whole entry): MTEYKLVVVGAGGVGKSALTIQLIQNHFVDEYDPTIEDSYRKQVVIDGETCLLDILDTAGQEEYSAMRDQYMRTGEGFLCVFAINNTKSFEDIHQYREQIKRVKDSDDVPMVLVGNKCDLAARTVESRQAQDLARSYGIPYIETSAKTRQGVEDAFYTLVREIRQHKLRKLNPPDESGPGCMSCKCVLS
In short: as §1

[4] = ratio of the KD value with respect to GDP-bound NRAS wild-type protein to the KD value with respect to KRAS
[5] = ratio of the KD value with respect to HRAS wild-type protein to the KD value with respect to KRAS
[6] = ratio of KD for GDP-bound NRAS wild-type protein to KD for KRAS
[7] = ratio of KD for HRAS wild-type protein to KD for KRAS

GDP-bound NRAS wild-type protein, sequence (P01111 whole entry): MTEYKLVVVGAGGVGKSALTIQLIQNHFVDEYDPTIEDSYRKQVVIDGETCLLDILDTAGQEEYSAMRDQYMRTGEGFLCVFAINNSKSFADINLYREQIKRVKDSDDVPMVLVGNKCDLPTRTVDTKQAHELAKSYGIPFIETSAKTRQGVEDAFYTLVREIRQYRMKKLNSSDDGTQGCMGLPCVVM

Row | pKd ([2]; Single Cycle Kinetics) | pIC50 [3] | pKd [2] | Compound | NRAS /KRAS [1, 4] | HRAS /KRAS (HRAS wild-type protein; [5]) | NRAS /KRAS [1, 6] | HRAS /KRAS (HRAS wild-type protein; [7]) | NRAS /KRAS ([1]; ratio of KD value for GDP-bound NRAS wild-type protein to KD value for KRAS (SPR)) | HRAS /KRAS (HRAS wild-type protein; ratio of KD value for HRAS wild-type protein to KD value for KRAS (SPR))
1 | 9.19 | 7.36 | – | CCO[C@@H]1C[C@H]2C(=O)NC3(CCC3)C(=O)N(C)[C@@H](C3CCCC3)C(=O)N(C)[C@H](C(=O)N3CCOCC3)CC(=O)N(C)[C@@H](Cc3ccccc3)C(=O)N[C@@H]([C@@H](C)CC)C(=O)N(C)CC(=O)N(C)[C@H]3CCCCCN(C3=O)[C@@H](Cc3ccc(C(F)(F)F)cc3)C(=O)N(C)CC(=O)N[C@@H](CCc3cc(F)c(C(F)(F)F)c(F)c3)C(=O)N2C1 [PP0687] | B (a compound having 3 or more and less than 10 is denoted as B) | B (a compound having 3 or more and less than 10 is denoted as B) | – | – | – | –
2 | 10.24 | 8.31 | – | CC[C@H](C)[C@@H]1NC(=O)[C@H](CC)N(C)C(=O)C[C@@H](C(=O)N2CCOCC2)N(C)C(=O)[C@H](C2CCCC2)N(C)C(=O)C2(CCCC2)NC(=O)[C@@H]2CCCN2C(=O)[C@H](CCc2cc(F)c(C(F)(F)F)c(F)c2)NC(=O)CN(C)C(=O)[C@H](Cc2ccc(C(F)(F)F)cc2)N2CCCC[C@@H](C2=O)N(C)C(=O)CN(C)C1=O [PP0550] | B (a compound having 3 or more and less than 10 is denoted as B) | B (a compound having 3 or more and less than 10 is denoted as B) | – | – | – | –
3 | – | 7.67 | 9.31 | CCO[C@@H]1C[C@H]2C(=O)NC3(CC(C)(C)C3)C(=O)N(C)[C@@H](C3CCCC3)C(=O)N(C)[C@H](C(=O)N(C)C)CC(=O)N(C)[C@@H]([C@H](C)OC)C(=O)N[C@@H]([C@@H](C)CC)C(=O)N(C3CC3)CC(=O)N(C)[C@H]3C/C=C\CCN(C3=O)[C@@H](Cc3ccc(C(F)(F)F)cc3)C(=O)N(C)CC(=O)N[C@@H](CCc3ccc(C(F)(F)F)c(Cl)c3)C(=O)N2C1 [PP3177] | – | – | A (a compound having 10 or more and less than 20 is denoted as A) | A (a compound having 10 or more and less than 20 is denoted as A) | – | –
4 | – | 8.60 | 10.11 | CCCO[C@@H]1C[C@H]2C(=O)NC3(CC(C)(C)C3)C(=O)N(C)[C@@H](C3CCCC3)C(=O)N(C)[C@H](C(=O)N(C)CC)CC(=O)N(C)[C@H]3CCCc4ccc(cc4)C[C@@H](C(=O)N(C)CC(=O)N[C@@H](CCc4ccc(C(F)(F)F)c(OC)c4)C(=O)N2C1)N1CC/C=C\C[C@@H](C1=O)N(C)C(=O)CN(C)C(=O)[C@H]([C@@H](C)CC)NC3=O [PP3083] | – | – | A (a compound having 10 or more and less than 20 is denoted as A) | A (a compound having 10 or more and less than 20 is denoted as A) | – | –
5 | 10.15 | 8.05 | – | CC[C@H](C)[C@@H]1NC(=O)[C@H](CC)N(C)C(=O)C[C@@H](C(=O)N(C)C)N(C)C(=O)[C@H](C2CCCC2)N(C)C(=O)C2(CCC2)N(C)C(=O)[C@@H]2C[C@@H](C)CN2C(=O)[C@H](CCc2cc(F)c(C(F)(F)F)c(F)c2)NC(=O)CN(C)C(=O)[C@H](Cc2ccc(C)cc2)N2CC/C=C\C[C@@H](C2=O)N(C)C(=O)CN(C)C1=O [PP1787] | – | – | – | – | A (a compound having 10 or more and less than 20 is denoted as A) | B (a compound having 3 or more and less than 10 is denoted as B)
6 | 8.82 | 7.87 | – | CCO[C@@H]1C[C@H]2C(=O)NC3(CC(C)(C)C3)C(=O)N(C)[C@@H](C(CC)CC)C(=O)N(C)[C@H](C(=O)N(C)C)CC(=O)N(C)[C@@H](CC)C(=O)N[C@@H]([C@@H](C)CC)C(=O)N(C)CC(=O)N(C)[C@H]3C/C=C\CCN(C3=O)[C@@H](Cc3ccc(C(F)(F)F)cc3)C(=O)N(C)CC(=O)N[C@@H](CCc3ccc(Cl)c(Cl)c3)C(=O)N2C1 [PP2179] | AA (a compound having 20 or more is denoted as AA) | A (a compound having 10 or more and less than 20 is denoted as A) | – | – | – | –
